What was measured:
Details in all cases: 72 h
[1] = system: U2OS; assay: fractional viability (live cells / total cells); higher = less cell death
Experimental: (§1)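 U2OS::Nuc-mKate2 cells seeded in 96-well plates and treated with eight- to ten-point half-log or log dilutions of drug in the presence of 50 nM SYTOX Green. Live (mKate2+) and dead (SYTOX+) cells were counted by IncuCyte STACK live-cell microscopy at 72 h; biological triplicates. GR is the normalised growth-rate inhibition value (Hafner 2016; 1 = untreated growth, <0 = population shrinking). FV is live/(live+dead) cells, not normalised.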

[2] = system: U2OS; assay: GRmin (fitted minimal GR value at highest effect) (GR value (dimensionless)); higher = less efficacious
Experimental: (§2)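 U2OS cells treated with full dose titrations of drug; live and dead cells counted by STACK microscopy (mKate2 nuclei, SYTOX Green) at 72 h, biological triplicates. GR and FV dose responses were fitted with 4-parameter logistic models (GR lower bound -1). GRADE (0-100) is the rescaled angle of a linear fit of FV versus GR at doses with GR >= 0, giving the percentage of the response due to cell death.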

[3] = system: U2OS; assay: normalized growth rate inhibition value (GR) relative to untreated cells (GR value (dimensionless, 1 = untreated growth)); higher = less growth inhibition
Experimental: as §1

[4] = system: U2OS; assay: GR50 (concentration giving GR = 0.5)
Experimental: as §2

[5] = system: U2OS; assay: drug GRADE (percent of response due to cell death) (% (0-100)); higher = more death-driven response
Experimental: as §2

CC1CCc2cc(F)cc3c(=O)c(C(=O)O)cn1c23 (stereo not drawn) [Flumequine]
Details	fractional viability, [1]	normalized growth rate inhibition value, [3]
0.01 µM	0.98	0.959
0.0316 µM	0.971	1.02
0.1 µM	0.981	0.966
0.316 µM	0.977	0.928
1 µM	0.971	0.907
3.16 µM	0.974	0.962
10 µM	0.977	1.1
31.6 µM	0.976	0.969

Details	GRmin
[2]	1

O=C(O)CCNc1cc(N2CCc3ccccc3CC2)nc(-c2ccccn2)n1 [GSKJ1]
Details	fractional viability, [1]	normalized growth rate inhibition value, [3]
0.01 µM	0.979	1.03
0.0316 µM	0.981	0.985
0.1 µM	0.98	0.962
0.316 µM	0.976	1.06
1 µM	0.985	1.02
3.16 µM	0.974	0.996
10 µM	0.975	1.01
31.6 µM	0.974	0.83

Details	GRmin
[2]	0.339

C=CCc1ccc(O)c(-c2ccc(O)c(CC=C)c2)c1 [Honokiol]
Details	fractional viability, [1]	normalized growth rate inhibition value, [3]
0.01 µM	0.978	1.04
0.0316 µM	0.974	1.07
0.1 µM	0.978	0.96
0.316 µM	0.983	1.03
1 µM	0.978	0.897
3.16 µM	0.979	0.981
10 µM	0.981	0.95
31.6 µM	0.969	0.774

CC(C)n1nc(-c2ccc3oc(N)nc3c2)c2c(N)ncnc21 [INK-128]
Details	GR50 [µM]	GRmin	drug GRADE
[2]	–	0.0247	–
[4]	0.0318	–	–
[5]	–	–	10.9

Details	fractional viability, [1]	normalized growth rate inhibition value, [3]
0.000318058 µM	0.987	0.831
0.00100506 µM	0.989	0.849
0.003176 µM	0.989	0.896
0.0100362 µM	0.987	0.726
0.0317143 µM	0.982	0.484
0.100217 µM	0.965	0.226
0.316686 µM	0.95	0.223
1.00073 µM	0.915	0.0973
3.1623 µM	0.855	-0.0193

CC(C)NC[C@@H](C(=O)N1CCN(c2ncnc3c2[C@H](C)C[C@H]3O)CC1)c1ccc(Cl)cc1 [Ipatasertib]
Details	fractional viability, [1]	normalized growth rate inhibition value, [3]
0.00100578 µM	0.99	0.9
0.00317827 µM	0.986	0.946
0.0100433 µM	0.986	1.14
0.0317369 µM	0.983	0.981
0.100289 µM	0.986	0.885
0.316912 µM	0.988	0.945
1.00144 µM	0.987	0.88
3.16456 µM	0.976	0.824
10 µM	0.947	0.548

Details	drug GRADE
[5]	6.49

CC1(C)CCC(c2ccc(Cl)cc2)=C(CN2CCN(c3ccc(C(=O)NS(=O)(=O)c4ccc(N[C@H](CCN5CCOCC5)CSc5ccccc5)c(S(=O)(=O)C(F)(F)F)c4)cc3)CC2)C1 [Navitoclax]
Details	fractional viability, [1]	normalized growth rate inhibition value, [3]
0.01 µM	0.98	0.981
0.0316 µM	0.983	1.04
0.1 µM	0.978	0.941
0.316 µM	0.978	1.02
1 µM	0.978	0.95
3.16 µM	0.972	0.94
10 µM	0.947	0.841
31.6 µM	0.887	0.891

Details	GRmin
[2]	0.866

CO[C@@H]1C[C@@H](C[C@H]2CC[C@H](C)[C@H]([C@@H](C)C(=O)O)O2)O[C@]2(O[C@](C)([C@H]3CC[C@@](C)([C@@H]4O[C@@H]([C@H]5O[C@@](O)(CO)[C@H](C)C[C@@H]5C)C[C@@H]4C)O3)C[C@H]2C)[C@@H]1C [Nigericin]
Details	GR50 [µM]	GRmin	drug GRADE
[2]	–	-0.311	–
[4]	0.436	–	–
[5]	–	–	57.3

Details	fractional viability, [1]	normalized growth rate inhibition value, [3]
0.01 µM	0.963	0.857
0.0316 µM	0.957	0.78
0.1 µM	0.903	0.777
0.316 µM	0.829	0.484
1 µM	0.625	0.277
3.16 µM	0.661	0.287
10 µM	0.685	0.155
31.6 µM	0.449	-0.106

O=C(c1cc(Cc2n[nH]c(=O)c3ccccc23)ccc1F)N1CCN(C(=O)C2CC2)CC1 [Olaparib]
Details	fractional viability, [1]	normalized growth rate inhibition value, [3]
0.00100578 µM	0.992	1.03
0.00317827 µM	0.988	0.94
0.0100433 µM	0.989	1.03
0.0317369 µM	0.992	1.02
0.100289 µM	0.99	0.964
0.316912 µM	0.989	0.956
1.00144 µM	0.987	0.922
3.16456 µM	0.982	0.85
10 µM	0.96	0.511

Details	drug GRADE
[5]	6.58

CC(=O)c1c(C)c2cnc(Nc3ccc(N4CCNCC4)cn3)nc2n(C2CCCC2)c1=O [Palbociclib]
Details	GR50 [µM]	GRmin	drug GRADE
[2]	–	0.176	–
[4]	1.15	–	–
[5]	–	–	3.13

Details	fractional viability, [1]	normalized growth rate inhibition value, [3]
0.000317827 µM	0.992	1.08
0.00100433 µM	0.992	0.975
0.00317369 µM	0.99	0.904
0.0100289 µM	0.989	0.841
0.0316912 µM	0.989	0.721
0.100144 µM	0.984	0.769
0.316456 µM	0.988	0.639
1 µM	0.987	0.525
3.16 µM	0.972	0.398

Cc1ccc(Nc2nccc(N(C)c3ccc4c(C)n(C)nc4c3)n2)cc1S(N)(=O)=O [Pazopanib]
Details	GR50 [µM]	GRmin	drug GRADE
[2]	–	0.369	–
[4]	19.9	–	–
[5]	–	–	47.8

Details	fractional viability, [1]	normalized growth rate inhibition value, [3]
0.01 µM	0.98	0.995
0.0316 µM	0.986	1.04
0.1 µM	0.98	1.07
0.316 µM	0.978	1
1 µM	0.979	1.04
3.16 µM	0.978	0.915
10 µM	0.917	0.68
31.6 µM	0.763	0.431

CS(=O)(=O)N1CCN(Cc2cc3nc(-c4cccc5[nH]ncc45)nc(N4CCOCC4)c3s2)CC1 [Pictilisib]
Details	GR50 [µM]	GRmin	drug GRADE
[2]	–	0.374	–
[4]	1.48	–	–
[5]	–	–	30.9

Details	fractional viability, [1]	normalized growth rate inhibition value, [3]
0.00100578 µM	0.988	1.02
0.00317827 µM	0.989	0.948
0.0100433 µM	0.985	0.953
0.0317369 µM	0.985	0.837
0.100289 µM	0.975	0.872
0.316912 µM	0.96	0.842
1.00144 µM	0.936	0.628
3.16456 µM	0.844	0.306
10 µM	0.854	0.455

C=CCNc1ncnc2ccc(Br)cc12 [SMER28]
Details	fractional viability, [1]	normalized growth rate inhibition value, [3]
0.01 µM	0.977	1.03
0.0316 µM	0.977	1.09
0.1 µM	0.98	0.962
0.316 µM	0.979	1.02
1 µM	0.982	1.02
3.16 µM	0.975	0.992
10 µM	0.973	0.909
31.6 µM	0.977	0.866

Details	GRmin
[2]	0.864

Cc1cc(C(C)Nc2ccccc2)c2nc(N3CCOCC3)cc(=O)n2c1 (stereo not drawn) [TGX221]
Details	fractional viability, [1]	normalized growth rate inhibition value, [3]
0.00100578 µM	0.988	1.1
0.00317827 µM	0.986	1.06
0.0100433 µM	0.988	1.04
0.0317369 µM	0.986	1.02
0.100289 µM	0.988	0.94
0.316912 µM	0.99	1.02
1.00144 µM	0.986	0.955
3.16456 µM	0.986	1.08
10 µM	0.977	1

Details	GRmin
[2]	0.951

Cc1nc(-c2cn3c(n2)-c2ccc(-c4cnn(C(C)(C)C(N)=O)c4)cc2OCC3)n(C(C)C)n1 [Taselisib]
Details	GR50 [µM]	drug GRADE
[4]	4.98	–
[5]	–	24.5

Details	fractional viability, [1]	normalized growth rate inhibition value, [3]
0.00100578 µM	0.987	1
0.00317827 µM	0.983	0.924
0.0100433 µM	0.979	0.852
0.0317369 µM	0.973	0.765
0.100289 µM	0.964	0.83
0.316912 µM	0.952	0.69
1.00144 µM	0.959	0.669
3.16456 µM	0.937	0.604
10 µM	0.856	0.389

Cn1nnc2c(C(N)=O)ncn2c1=O [Temozolamide]
Details	fractional viability, [1]	normalized growth rate inhibition value, [3]
0.01 µM	0.982	0.992
0.0316 µM	0.982	1.07
0.1 µM	0.981	0.975
0.316 µM	0.977	1.05
1 µM	0.975	0.984
3.16 µM	0.978	0.894
10 µM	0.98	0.954
31.6 µM	0.975	1.02

Details	GRmin
[2]	0.955

Nc1ccc(-c2ccc3ncc4ccc(=O)n(-c5cccc(C(F)(F)F)c5)c4c3c2)cn1 [Torin2]
Details	fractional viability, [1]	normalized growth rate inhibition value, [3]
0.000100578 µM	0.988	0.795
0.000317827 µM	0.985	0.854
0.00100433 µM	0.986	0.924
0.00317369 µM	0.988	0.826
0.0100289 µM	0.988	0.841
0.0316912 µM	0.989	0.85
0.100144 µM	0.987	0.832
0.316456 µM	0.985	0.916
1 µM	0.971	0.523

Details	GRmin	drug GRADE
[2]	-0.853	–
[5]	–	4.29

CC(=O)Nc1cccc(-n2c(=O)n(C3CC3)c(=O)c3c(Nc4ccc(I)cc4F)n(C)c(=O)c(C)c32)c1 [Trametinib]
Details	fractional viability, [1]	normalized growth rate inhibition value, [3]
0.000100578 µM	0.978	0.839
0.000317827 µM	0.974	0.677
0.00100433 µM	0.965	0.696
0.00317369 µM	0.951	0.569
0.0100289 µM	0.915	0.582
0.0316912 µM	0.732	0.319
0.100144 µM	0.524	0.0761
0.316456 µM	0.442	0.0524
1 µM	0.466	0.0402

CC[C@]1(O)C[C@@H]2CN(CCc3c([nH]c4ccccc34)[C@@](C(=O)OC)(c3cc4c(cc3OC)N(C)[C@H]3[C@@](O)(C(=O)OC)[C@H](OC(C)=O)[C@]5(CC)C=CCN6CC[C@]43[C@@H]65)C2)C1 [Vinblastine]
Details	fractional viability, 0.00316 µM	fractional viability, 0.0316 µM	fractional viability, 0.316 µM	fractional viability, 3.16 µM	fractional viability, 31.6 µM	normalized growth rate inhibition value, 0.00316 µM	normalized growth rate inhibition value, 0.0316 µM	normalized growth rate inhibition value, 0.316 µM	normalized growth rate inhibition value, 3.16 µM	normalized growth rate inhibition value, 31.6 µM
[1]	0.426	0.5	0.467	0.416	0.166	–	–	–	–	–
[3]	–	–	–	–	–	0.057	0.0629	0.0107	-0.0225	-0.258

Details	drug GRADE
[5]	3.36

From the supplement of paper PMC7394473
